Source: PMC3454376, “Salidroside Improves Behavioral and Histological Outcomes and Reduces Apoptosis via PI3K/Akt Signaling after Experimental Traumatic Brain Injury” (PLoS ONE, 2012)

Tests used:
[1] = system: mice subjected to controlled cortical impact injury; test: Beam walk test after CCI; assay type: in vivo
Procedure: (§1) All animal procedures were approved by the Animal Research Committee at Cheng Hsin General Hospital (Animal permit number […] 101-08), and all procedures complied with the Guide for the Care and Use of Laboratory Animals published by the US National Institutes of Health (NIH Publication No. 85-23, revised 1996). Animals were housed under a 12-h light/dark cycle and at constant temperature (21-25°C) and humidity (45-50%). They were allowed free access to pellet chow and water. TBI in mice was induced by a CCI injury model as previously described. Briefly, 8-week-old male C57BL/6 mice (weighing 22-25 g) were anesthetized through the use of intraperitoneal injection of sodium pentobarbital (65 mg/kg; Rhone Merieux, Harlow, UK) and placed in a stereotaxic frame. A 5 mm craniotomy was performed over the right parietal cortex, centered on the coronal suture and 0.1 mm lateral to the sagittal suture, and injury to dura was avoided. […] Body temperature was monitored throughout the surgery by a rectal probe; temperature was maintained at 37.0±0.5°C using a heated pad. […] To determine the optimal dose of salidroside, a pilot study was performed using 2 different doses (20 and 50 mg/kg) administered 10 min after injury, and neurological deficits and tissue damage were evaluated as the main outcomes. […]

[2] = system: mice subjected to controlled cortical impact injury; test: Modified neurological severity score (mNSS) after CCI; assay type: in vivo
Procedure: as §1

## OC[C@H]1O[C@@H](OCCc2ccc(O)cc2)[C@H](O)[C@@H](O)[C@@H]1O [SALD, salidroside]
[1]; 20 mg/kg ip 10 min after CCI, days 4 and 21, P<0.05 and 0.01
  beam walk latency versus vehicle group: significant difference
[1]; 50 mg/kg ip 10 min after CCI, P<0.05
  beam walk latency, treatment effect versus vehicle: significant only at day 4
[2]; 20 mg/kg ip 10 min after CCI, days 4, 14, 21, 28, all P<0.05
  mNSS scores versus vehicle group: significant lower
[2]; 50 mg/kg ip 10 min after CCI, days 14, 21, 28, P<0.05
  mNSS scores versus vehicle group: significantly lower
